Test results from article PMC10297291 (2023).
One block for each compound: values may come before it.

How the values were obtained:
[1] = system: ds26 (DNA, duplex) CAATCGGATCGAATTCGATCCGATTG; assay: thiazole orange displacement (G4-FID), fluorescence; details: 10 mM K+, 90 mM Li+, 10 mM lithium cacodylate pH 7.2, 1 µM TO displaced, 0.25 µM DNA, 3 min equilibration
[2] = system: G4 (DNA, G4) AGGGTTAGGGTTAGGGTTAGGG; assay: as above; details: 10 mM K+, 90 mM Li+, 10 mM lithium cacodylate pH 7.2, 1 µM TO displaced, 0.25 µM DNA, 3 min equilibration
[3] = system: G4 (DNA, G4) AGGGTTAGGGTTAGGGTTAGGG; assay: thiazole orange displacement (G4-FID), kinetics; details: 10 mM K+, 90 mM Li+; 10 mM lithium cacodylate pH 7.2; 1 µM TO displaced, 0.25 µM DNA; resveratrol concentration not stated

TO shift ([1]; highest concentrations): < 20%
TO shift ([2]; highest concentrations): < 20%
SMILES: O=c1cc(-c2ccccc2)oc2cc(O)cc(O)c12

binding [3]: no
SMILES: Oc1ccc(/C=C/c2cc(O)cc(O)c2)cc1

binding ([1]; positive control): yes
binding ([2]; positive control): yes
SMILES: O=c1c(O)c(-c2ccc(O)c(O)c2)oc2cc(O)cc(O)c12
